This note sets out measurements from patent US7745492B2, “Carboxamido opioid compounds” (Janssen Pharmaceutical, priority 2004, dated 2010).

For orientation: Ki means a dissociation constant, usually derived from enzyme kinetics or from competition with a known ligand. Read a high Ki as weaker binding. For orientation: ED50 means the dose that gives a 50% effect, or the effect in half of the subjects. What is called half-life is the time needed for the level to fall by half in the phase considered. One may read the IC50 as the point on the concentration scale where inhibition reaches its midpoint.

For one data set, the target named is T1, mu opioid receptor (Rattus norvegicus, UniProt P33535).
T1 construct: from tissue; host or cells: rat forebrain membrane (particulate) preparation
The data set is described as follows: Rat brain mu opioid receptor binding assay ([3H]DAMGO). The following applies: rat forebrain membranes, 25° C. The procedure: Rat Brain Mu and Delta Opioid Receptor Binding Assay
Male, Wistar rats (150-250 g, VAF, Charles River, Kingston, N.Y.) were killed by cervical dislocation and their brains removed and placed immediately in ice cold Tris HCl buffer (50 mM, pH 7.4). The forebrains were separated from the remainder of the brain by a coronal transection, beginning dorsally at the colliculi and passing ventrally through the midbrain-pontine junction. After dissection, the forebrains were homogenized in Tris buffer in a Teflon®-glass homogenizer. The homogenate was diluted to a concentration of 1 g of forebrain tissue per 100 mL Tris buffer and centrifuged at 39,000×G for 10 min. The pellet was resuspended in the same volume of Tris buffer with several brief pulses from a Polytron homogenizer. This particulate preparation was used for the opioid receptor binding assays. Following incubation with the mu opioid selective peptide ligand [^3H]DAMGO or the delta opioid selective ligand [^3H]DPDPE at 25° C., the tube contents were filtered through Whatman GF/B filter sheets on a Brandel cell harvester. The tubes and filters were rinsed three times with 4 mL of 10 mM HEPES (pH 7.4) and the radioactivity associated with the filter circles determined using Formula 989 scintillation fluid (New England Nuclear, Boston, Mass.) in a scintillation counter.
The data were used to calculate a Ki value, using GraphPad Prism.

The next data set deals with Male Sprague Dawley rats. Briefly: Spinal nerve ligation (SNL) model of neuropathic pain, mechanical allodynia (Von Frey). Type of data set: in vivo. The settings on record: rat, at 2 h. On the procedure:
Spinal Nerve Ligation (SNL) Model of Neuropathic Pain
Male Sprague Dawley rats weighing 145 to 165 g (approximately 6 weeks of age) were obtained from Harlan (Indianapolis, Ind.). Food and water were provided ad lib and a 12 h light and 12 h dark cycle were maintained. Animals were group housed under specific pathogen-free, barrier maintained environment and were allowed to acclimate for no less than 1 week. Following surgery, animals were housed individually in solid bottom polycarbonate cages with automatic watering devices at 22° C. and a relative humidity of 60%. All animals received Harland Tekland Diet # 8604.
Anesthesia was induced using isoflurane (IsoVet™) inhalant in an induction chamber (3-5% in 2 L/min of O2). Once recumbent, the animal was removed and placed into a nose cone which delivered inhalant isoflurane (0.5-2.5% at 2 L/min Of O2). The dorsal pelvic area was shaved and scrubbed aseptically with chlorhexidine scrub, 70% alcohol, and a 5% chlorhexidine solution. The animal was held in ventral recumbency on a heating pad, and the surgical procedure described by Kim and Chung (1992) was performed. The left paraspinal muscles were separated from the spinous processes at the level of Lumbar 4 to Sacral 2 (L4-S2). Once the musculature was retracted, the L6 transverse process was removed using a small rongeur. L4 and L5 spinal nerves could then be visualized. L5 was then isolated and ligated using 6-0 silk suture material. Warm saline and a dose of long-acting antibiotic was administered immediately post-op before recovery form anesthesia.
At least one week following surgery, animals were individually placed in a Lucite testing chamber with a wire mesh bottom. Mechanical (tactile) allodynia was measured by recording the pressure at which the affected paw was withdrawn from graded stimuli (Von Frey hairs ranging from 4.0 to 148.1 mN equivalent to 0.25 to 15 g of pressure) applied to the plantar surface of the paw (between the footpads) according to the procedure of Chaplan et. al (1994) in order to calculate paw withdrawal threshold (PWT). Normal rats can withstand at least 15 g of pressure without responding. SNL rats can respond to as little as 0.25 g of pressure. Rats were included in this study only if their PWT was below 4.0 g.
Animals were used for compound testing between 2 weeks and 8 weeks post-operatively. Animals were always pre-tested for baseline withdrawal threshold on the day of testing. Following a 16 h fast, PWT was evaluated at 30 min, 1 h, 2 h, and 4 h post-dosing. Dose-response studies were conducted at the time of peak effect. Studies were conducted in a blinded manner.
Data were normalized and results were presented as % MPE (maximum possible effect) of the drug.

The subject of data set [1] is spinal nerve ligated rats. The data set is described as follows: Investigation of tolerance development to antiallodynic effect. Type of data set: in vivo, rat. The following applies: dosing for five days, evaluated days one and five. The procedure:
Investigation of Tolerance Development
The development of tolerance to the analgesic effect of mu opioid compounds is well known. The development of tolerance to the antiallodynic effect of the Compound 3 was investigated by administering the compound to spinal nerve ligated rats for five days. The antiallodynic effect of the compound was evaluated on days one and five.

Data set [2] is described as follows: Metabolic stability in rat liver microsomes. Type of data set: in vitro ADME. The following applies: 10 min incubation. On the procedure: (§1) The metabolic stability of Compound 3 was investigated using several approaches. The compound was incubated with liver microsomes from mouse, rat, dog and human and the percent of compound remaining after ten min quantified. The compound was metabolically robust in all species tested.
(Liver microsomes are vesicles of endoplasmic reticulum, rich in cytochrome P450 enzymes.)

Data set [3] is described as follows: Metabolic stability in human liver microsomes. Type of data set: in vitro ADME. On the procedure: as §1
In a follow up study in human liver microsomes, the percent of compound remaining was determined at several incubation times (30, 60 and 90 min). The in vitro half life of the compound was determined to be >100 minutes.

Data set [4] concerns the target recombinant human P450 2D6 (Homo sapiens, UniProt P10635). The data set is described as follows: Recombinant human P450 isoform inhibition, 2D6. Type of data set: in vitro ADME. On the procedure: (§2) In a study using recombinant human P450 isoforms, the compound was only a weak inhibitor (IC50>10 μM) of all isoforms tested, 3A4, 2D6, 2C9, 2C19, and 1A2.
Data set [5] deals with recombinant human P450 2C19 (Homo sapiens, UniProt P33261). The data set is described as follows: Recombinant human P450 isoform inhibition, 2C19. Type of data set: in vitro ADME. On the procedure:
as §2

Data set [6] has as its target T2, recombinant human P450 1A2 (Homo sapiens, UniProt P05177).
T2 sequence (P05177 1-516): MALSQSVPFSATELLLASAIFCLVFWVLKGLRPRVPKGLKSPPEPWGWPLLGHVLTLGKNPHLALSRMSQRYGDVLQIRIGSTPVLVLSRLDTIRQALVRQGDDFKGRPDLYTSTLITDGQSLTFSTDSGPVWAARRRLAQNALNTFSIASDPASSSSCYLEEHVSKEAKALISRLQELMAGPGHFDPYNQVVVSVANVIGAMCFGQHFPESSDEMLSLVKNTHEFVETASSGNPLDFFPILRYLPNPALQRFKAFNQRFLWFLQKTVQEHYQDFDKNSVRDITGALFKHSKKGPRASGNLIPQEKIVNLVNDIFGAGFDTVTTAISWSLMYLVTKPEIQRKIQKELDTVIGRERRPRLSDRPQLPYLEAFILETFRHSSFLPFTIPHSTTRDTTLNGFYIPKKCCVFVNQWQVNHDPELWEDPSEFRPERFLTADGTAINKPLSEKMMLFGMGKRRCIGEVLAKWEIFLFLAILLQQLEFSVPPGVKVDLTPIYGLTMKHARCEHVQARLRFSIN
The data set is described as follows: Recombinant human P450 isoform inhibition, 1A2. Type of data set: in vitro ADME. The procedure:
as §2

recombinant human P450 2D6, sequence (P10635 whole entry, canonical isoform): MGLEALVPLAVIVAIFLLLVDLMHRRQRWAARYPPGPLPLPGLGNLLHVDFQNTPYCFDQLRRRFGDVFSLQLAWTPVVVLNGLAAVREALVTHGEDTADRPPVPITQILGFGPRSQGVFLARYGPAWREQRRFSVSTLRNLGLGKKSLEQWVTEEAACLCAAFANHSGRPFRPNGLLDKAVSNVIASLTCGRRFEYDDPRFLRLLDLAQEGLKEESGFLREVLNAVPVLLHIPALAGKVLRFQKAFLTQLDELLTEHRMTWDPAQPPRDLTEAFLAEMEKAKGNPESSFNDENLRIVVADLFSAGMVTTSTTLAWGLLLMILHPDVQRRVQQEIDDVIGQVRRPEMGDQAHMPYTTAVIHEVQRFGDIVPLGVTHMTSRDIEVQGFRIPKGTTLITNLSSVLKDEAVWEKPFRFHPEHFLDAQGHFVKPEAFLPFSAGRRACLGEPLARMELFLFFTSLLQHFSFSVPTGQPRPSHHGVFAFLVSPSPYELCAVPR
T1 sequence (P33535 whole entry): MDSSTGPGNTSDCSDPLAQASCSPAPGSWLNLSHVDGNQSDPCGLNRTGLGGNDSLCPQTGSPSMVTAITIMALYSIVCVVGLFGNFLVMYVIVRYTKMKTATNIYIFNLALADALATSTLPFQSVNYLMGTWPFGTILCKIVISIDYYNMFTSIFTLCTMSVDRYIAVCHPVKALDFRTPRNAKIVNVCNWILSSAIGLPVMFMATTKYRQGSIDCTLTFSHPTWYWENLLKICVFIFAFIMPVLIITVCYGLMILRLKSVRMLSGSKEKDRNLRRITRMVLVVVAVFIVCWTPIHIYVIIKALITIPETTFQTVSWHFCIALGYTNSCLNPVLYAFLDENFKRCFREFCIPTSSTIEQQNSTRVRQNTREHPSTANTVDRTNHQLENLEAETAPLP
recombinant human P450 2C19, sequence (P33261 whole entry, canonical isoform): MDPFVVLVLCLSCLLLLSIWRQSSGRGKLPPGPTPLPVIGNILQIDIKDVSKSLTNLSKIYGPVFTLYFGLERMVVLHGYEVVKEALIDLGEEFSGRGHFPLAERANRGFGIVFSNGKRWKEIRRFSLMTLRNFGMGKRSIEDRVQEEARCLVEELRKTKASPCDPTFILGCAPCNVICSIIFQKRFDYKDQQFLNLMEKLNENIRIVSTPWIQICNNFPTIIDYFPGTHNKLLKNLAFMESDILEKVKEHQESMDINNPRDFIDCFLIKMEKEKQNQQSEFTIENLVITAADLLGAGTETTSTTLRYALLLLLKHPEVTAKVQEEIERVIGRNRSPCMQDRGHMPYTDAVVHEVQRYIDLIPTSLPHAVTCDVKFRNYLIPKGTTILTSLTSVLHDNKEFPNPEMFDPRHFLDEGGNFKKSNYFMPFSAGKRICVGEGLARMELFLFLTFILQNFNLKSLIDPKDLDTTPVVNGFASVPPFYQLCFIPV

Take `CN(C)C[C@H]1CCCC[C@]1(O)c1cccc(C(N)=O)c1` (single isomer, unassigned) [Cpd 3]: the Ki at mu opioid receptor was found to be 0.0155 µM. Moreover, the ED50 in the data set with Male Sprague Dawley rats was determined as 17 mg/kg. Further, the “Development of tolerance to the antiallodynic effect” value in data set [1] is listed as “did not diminish the antiallodynic effect”. Also, the figures for the “% remaining after 10 min” value in data set [2] and in data set [3] (10 min incubation) were 94.5% and 101.4%, respectively. Also, the “Metabolism in human liver microsomes (result in words)” value in data set [3] (10 min incubation) was “no metabolism of the compound was observed”. The half-life in data set [3] (incubation times 30, 60 and 90 min, read-out: In vitro half life) is over 1.67 h. Besides, the IC50 in data set [4], in data set [5] and in data set [6] was over 10 µM each time.
